Laboratory results as given in US11559526B2, “Drug effective for lymphogenous drug administrating method” (TOHOKU UNIVERSITY, priority 2016, dated 2023).
Structures can show the parent of a compound that is named as a salt.

Experiments:
[1] = tested on: KM-Luc/GFP cells; experiment: Anticancer activity after administration into the accessory axillary lymph node, mouse model of proper axillary lymph node metastasis (KM-Luc/GFP), luciferase imaging; assay type: in vivo; design: key to Luciferase activity ratio calculated by Expression 3: day9/day6 normalized luciferase ratio, 0 μg/g set to 100; settings: for Luciferase activity ratio calculated by Expression 3: 0 μg/g set to 100
Protocol: As a mouse model of lymphadenopathy, MXH10/Mo/lpr/lpr (MXH10/Mo/lpr) mice were prepared in accordance with the method previously reported (J Immunol Methods 2013; 389 (1-2): 69-78 doi 10.1016/j.jim.2013.01.004). In the following Examples, in total, 5 male and female model mice aged 15 to 18 weeks were used.
Mouse fibroblast-derived KM-Luc/GFP cells were prepared in accordance with the method previously reported (PLoS One 2013; 8 (2): e55797 doi 10.1371/journal.pone.0055797). The KM-Luc/GFP cells were obtained by transfecting MRL/MpTn-gld/gld mouse fibroblast-derived cancer cells, MRL/N1 cells, with pEGFPLuc plasmid. The KM-Luc/GFP cells constantly express a luciferase gene and a green fluorescent gene. In the following Examples, the cells were cultured in Dulbecco's modified Eagle's medium (manufactured by Sigma-Aldrich) containing 10% FBS (fetal bovine serum), 1% L-Glutamine-P.S. solution (manufactured by Thermo Fisher Scientific) and 0.5% G418 and put in use.
(§1) KM-Luc/GFP (cancer) cells, which were prepared by thawing the cells stored at −80° C. and thereafter sub-culturing them twice in total, were suspended in PBS (phosphate buffered saline) and the concentration thereof was controlled to be 1.0×10^6 cells/mL. Thereafter, the cell suspension was mixed with Matrigel (basement membrane matrix, manufactured by Becton, Dickinson and Co.) and diluted to a concentration of 3.3×10^5 cells/mL, and then, the resultant (60 μL) was inoculated into mouse subiliac lymph node (FIG. 1). The day when the cancer cells were inoculated was specified as day 0.
(§2) Using a biological fluorescence imaging system (IVIS manufactured by Caliper Life Science), the growth rates of cancer cells in the subiliac lymph node and proper axillary lymph node were determined on day 0, day 6 and day 9 after inoculation of the cancer cells. 200 μL of luciferin (manufactured by Promega), the concentration of which was controlled to be 15 mg/mL, was injected into the abdominal cavity of the mouse. Ten minutes later, luciferase activity was determined using the IVIS.
Of the mice on day 6 after cancer cell inoculation, mice having a luciferase activity of 1.0×10^6 photons/sec or more in the proper axillary lymph node were selected, and 120 μL of 5-FU was administered to the accessory axillary lymph node at a rate of 10 μL/min by use of a syringe pump (KDS100, manufactured by Muromachi) (FIG. 1).
The luciferase activities on day 6 and day 9 were normalized in accordance with the following [Expression 1]. Thereafter, the ratio of the normalized luciferase activity on day 9 to that on day 6 was calculated in accordance with the following [Expression 2]. The ratio of the normalized luciferase activity on day 9 to that on day 6 at each administration concentration of 5-FU, when the ratio of the normalized luciferase activity on day 9 to that on day 6 at administration of 0 μg/g was set to 100, was calculated in accordance with the following [Expression 3]. Normalized luciferase activity on day 6 or day 9=((luciferase activity on day 6 or day 9)/(luciferase activity on day 0)) [Expression 1] Ratio of normalized luciferase activity on day 9 to that on day 6=((normalized luciferase activity on day 9)/(normalized luciferase activity on day 6)) [Expression 2] Ratio of normalized luciferase activity on day 9 to that on day 6 at each administration concentration of 5-FU, when the ratio of normalized luciferase activity on day 9 to that on day 6 at administration of 0 μg/g was set to 100,=((ratio of normalized luciferase activity on day 9 to that on day 6 at each administration concentration of 5-FU)/(ratio of normalized luciferase activity on day 9 to that on day 6 at administration of 0 μg/g)×100) [Expression 3] 3. Results […]
The same method as in Example 1 was employed except that the test drug to be administered to the accessary axillary lymph node was changed to doxorubicin.

[2] = tested on: FM3A-Luc cells; experiment: Anticancer activity of docetaxel administered into a lymph node, mouse model of proper axillary lymph node metastasis (FM3A-Luc), luciferase imaging; assay type: in vivo; settings: for Luciferase activity ratio calculated by Expression 6 (day 6^T): day 6^T to day −1^T
Protocol: Mouse breast cancer cell-derived FM3A-Luc cells were prepared in accordance with the method previously reported (J Immunol Methods 2013 Mar 29; 389 (1-2): 69-78. doi: 10.1016/j.jim.2013.01.004.). The FM3A-Luc cells were obtained by gene-introduction of pGL4.51 into FM3A cells by means of electroporation and constantly express a luciferase gene. In the following Examples, the cells were cultured in RPMI-1640 (manufactured by Sigma-Aldrich) containing 10% FBS (fetal bovine serum), 1% of an L-Glutamine-P.S. solution (manufactured by Theimo Fisher Scientific) and 0.5% of G418 and put in use.
As docetaxel, taxotere for intravenous infusion, 80 mg (manufactured by Sanofi K. K.) was used. Taxotere for intravenous infusion 80 mg (2 mL) was dissolved in 13% ethanol (6 mL) to prepare a 10 mg/mL stock solution. Thereafter, the stock solution was dissolved with sterile water in such a way that the concentration per mouse body-weight became 0 μg/g, 1 μg/g and 10 μg/g.
as §1, with “FM3A-Luc (cancer) cells,” for “KM-Luc/GFP (cancer) cells,”, “thawing the cancer cells stored” for “thawing the cells stored”, “were suspended with PBS (phosphate” for “were suspended in PBS (phosphate”, “and diluted up to a” for “and diluted to a”
as §2, with “7, day 14, day 17, day 20, day 23, day 26” for “6”, “29” for “9”
To a mouse confirmed to have a luciferase activity of 1.0×10^6 photons/sec or more in the proper axillary lymph node, docetaxel (120 μL) was administered to the accessory axillary lymph node on the day following confirmation at a rate of 10 μL/min by use of a syringe pump (KDS100, manufactured by Muromachi) (FIG. 1).
The day when docetaxel was administered was defined as day 0^T. The luciferase activity on day 3^T (3 days after administration of docetaxel) and the luciferase activity on day 6^T (6 days after administration of docetaxel) were normalized in accordance with the following [Expression 4]. Thereafter, the ratio of the normalized luciferase activity on day 3^T or day 6^T to that on day −1^T (the day when the luciferase activity in the proper axillary lymph node was confirmed to be 1.0×10^6 photons/sec or more and the day before docetaxel administration) was calculated in accordance with the following [Expression 5]. The ratio of the normalized luciferase activity on day 3^T or day 6^T to that on day −1^T at each administration concentration of docetaxel, when the ratio of the normalized luciferase activity on day 3^T or day 6^T to that on day −1^T at administration of 0 μg/g was set to 100, was calculated in accordance with the following [Expression 6]. […]

[3] = tested on: cancer cell strain; settings: cited from earlier work
[4] = tested on: cancer-containing proper axillary lymph node (PALN); settings: administration through the subiliac lymph node (SiLN); cited from earlier work
[5] = 0.1 μg/g into accessory axillary lymph node, day 9 to day 6 ratio in proper axillary lymph node
[6] = 1 μg/g into accessory axillary lymph node, day 9 to day 6 ratio
[7] = 10 μg/g into accessory axillary lymph node, day 9 to day 6 ratio

## O=c1[nH]cc(F)c(=O)[nH]1 [5-FU, 5-fluorouracil]
[1]; [5]
  Luciferase activity ratio calculated by Expression 3: 9.27
[1]; [6]
  Luciferase activity ratio calculated by Expression 3: 9.12
[1]; [7]
  Luciferase activity ratio calculated by Expression 3: 1.49
[1]; dose 0.1 μg/g
  tumor regression effect: ≥ 90%

## CCc1c2c(nc3ccc(OC(=O)N4CCC(N5CCCCC5)CC4)cc13)-c1cc3c(c(=O)n1C2)COC(=O)[C@]3(O)CC [CPT-11, irinotecan hydrochloride]
[1]; 0.5 μg/g into accessory axillary lymph node, day 9 to day 6 ratio
  Luciferase activity ratio calculated by Expression 3: 6.06
[1]; 5 μg/g into accessory axillary lymph node, day 9 to day 6 ratio
  Luciferase activity ratio calculated by Expression 3: 3.03
[1]; dose 0.5 μg/g
  tumor regression effect: ≥ 90%

## CC(=O)O[C@@]12CO[C@@H]1C[C@H](O)[C@@]1(C)C(=O)[C@H](O)C3=C(C)[C@@H](OC(=O)[C@H](O)[C@@H](NC(=O)OC(C)(C)C)c4ccccc4)C[C@@](O)([C@@H](OC(=O)c4ccccc4)[C@H]21)C3(C)C [Docetaxel, docetaxel]
[2]; 1 μg/g into accessory axillary lymph node, 0 μg/g set to 100
  Luciferase activity ratio calculated by Expression 6 (day 6^T): 7.5
[2]; 10 μg/g into accessory axillary lymph node, day 3^T to day −1^T, 0 μg/g set to 100
  Luciferase activity ratio calculated by Expression 6 (day 3^T): 16.2
[2]; 10 μg/g into accessory axillary lymph node, 0 μg/g set to 100
  Luciferase activity ratio calculated by Expression 6 (day 6^T): 1.7
[2]; dose 1 μg/g, day 6 after initiation of treatment
  tumor regression effect: ≥ 90%
[2]; dose 10 μg/g
  tumor reduction ratio: ≥ 80%
[3]
  cell growth inhibitory activity of docetaxel compared with doxorubicin: almost equal to that of doxorubicin

## COc1cccc2c1C(=O)c1c(O)c3c(c(O)c1C2=O)C[C@@](O)(C(=O)CO)C[C@@H]3O[C@H]1C[C@H](N)[C@H](O)[C@H](C)O1 [Doxorubicin, doxorubicin hydrochloride]
[1]; [5]
  Luciferase activity ratio calculated by Expression 3: 40.9
[1]; [6]
  Luciferase activity ratio calculated by Expression 3: 43.2
[1]; [7]
  Luciferase activity ratio calculated by Expression 3: 75.0
[1]; dose 1 μg/g
  best tumor reduction ratio: less than 60%
[1]; dose 10 μg/g
  tumor reduction ratio: about 25%
[3]
  cell growth inhibitory activity (GI50 value) of doxorubicin, times as high as those of 5-FU and CPT-11: 10 to 1,000 times
[4]
  anticancer effect in the proper axillary lymph node: resulted in an anticancer effect
